Test results taken from patent US20030044497A1, “Process to treat fish with tasteless smoke or carbon monoxide through the respiratory and circulatory systems” (priority 2001, published 2003).

Assays:
[1] = Increase of CO concentration in treated flesh; settings: treated fish flesh or other meats
Description: However, when natural fish flesh or other meats are treated with carbon monoxide the concentrations in the flesh can increase incrementally from approximately 1.1 to 20 times and on occasion to as much as 80 times. These observed and measured increases in carbon monoxide in the flesh are dependent upon several factors including the quantity of myoglobin in the fish and other meats, carbon monoxide concentration, time, and method of exposure.

[2] = test system: Humans; settings: cited from earlier work
[3] = 24 degrees Centigrade, one atmosphere, 20% reduction for seawater medium
Description: The volume of gas, vo, (in milliliters STPD) dissolved in one liter of water at one atmosphere pressure (760 mm Hg) is expressed by the following formula:
vo=absorption coefficient×(V×Po)
where V is the volume of the solvent, and Po is the partial pressure of the gas in atmospheres. Therefore, the amount of gas dissolved is dependent upon its partial pressure in a linear relationship.
The coefficient of solubility is defined as the volume of the gas taken up by a unit volume of the solvent under a particular set of temperature and pressure conditions. If v is the volume of the dissolved gas, measured at temperature T and partial pressure Pg atm, with To equal to 0 degrees Centigrade, then:

[4] = test system: hemoglobin; settings: cited from earlier work
[5] = liquid water or blood plasma; cited from earlier work
[6] = CO gill absorption formula calculation for tuna; settings: yellowfin tuna, hemoglobin 11-12 grams/deciliter x 1.39
Description: Hemoglobin CO capacity is 1.39 multiplied times the hemoglobin concentration in the blood which gives ml of CO per gram of Hb per deciliter of blood. For example, from the cardiorespiratory table above the hemoglobin concentration of yellowfin tuna is 11-12 grams/deciliter and when multiplied by 1.39 the result is 15.3-16.7 ml CO/deciliter of blood as the COHb capacity of yellowfin.
Maximum saturation time is a function of the gill absorption rate and reaching saturation equilibrium within the fish blood and the fish tissue. This absorption rate has two components, the CO bound to the Hb and the free CO diffused through the gills directly into the blood plasma. It can be computed by the following relationship:
CO gill absorption=(cardiac output*(Hb*1.39*%sat)*wt)+((cardiac output*(0.029*PCO)/100)*wt)
Cardiac output is in ml blood/min/kg; Hb is blood hemoglobin in grams/ml (Hb is divided by 100 to convert dl to ml; wt is fish weight in kg; 0.0029 is the solubility of CO in mlCO/dl; PCO is the partial pressure of CO in mmHg (0.0029*PCO) is divided by 100 to convert dl to ml.
From the cardiorespiratory function table above, we assume a yellowfin tuna with wt=1 kg; Hb=0.11 gm/ml; cardiac output=115 ml/min/kg; %sat=100%; and PCO=228 mmHg which is the partial pressure of tasteless smoke comprised of 30% CO. […]

Row | Compound | increase of CO concentration in the flesh over natural, on occasion [1] [times] | COHb level at which rapid death occurs [2] | half-life (time for a 50% COHb reduction in the blood) [2] [h] | maximum solubility [3] [ml CO per liter H2O] | P50 partial pressure at which half the hemoglobin is saturated [4] [mmHg] | solubility constant [5] | COHb capacity of blood [6]
1 | [C-]#[O+] [CO, carbon monoxide] | ≤ 80 | exceed 80% | 5 | 17.63 | 0.4 | 0.029 mlCO/liter H2O/mmHgCO | 15.3-16.7 ml CO/deciliter of blood
2 | O=O [O2, oxygen, reference compound] |  |  |  |  |  | 0.030 ml O2/liter H2O/mm1Hg O2 | 
